From patent US10280170B2, “Substituted 4,5,6,7-tetrahydro-pyrazolo[1,5-a]pyrazine derivatives and 5,6,7,8-tetrahydro-4H-pyrazolo[1,5-a][1,4]diazepine derivatives as Ros1 inhibitors” (Janssen Pharmaceutica NV, priority 2014, dated 2019)
Like-named read-outs stand apart in the source and are kept apart here.

Key:
[1] = target: Ba/F3 cells containing Ros1 with a mutation at the gatekeeper residue (L2026M) (Homo sapiens, UniProt P08922, L2026M, cells depend on it, form not given); experiment: Ba/F3-Ros1 cell proliferation assay, L2026M gatekeeper mutant; format: cell-based, murine; details: without IL-3
Method in brief: (§1)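 Compounds dispensed from 100% DMSO; Ba/F3 cells carrying one of three Ros1 forms added at 20000/well in RPMI-1640 with 10% FBS. Plates kept 24 h at 37 °C under 5% CO2. Alamar Blue added, 4 h further incubation, fluorescence measured at 540/590 nm.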

[2] = test system: HCC78 non-small cell lung cancer cells; experiment: HCC78 cell proliferation assay; format: cell-based; details: Homo sapiens, HCC78, 96 h, read-out: HCC-78 PROL pEC50 (converted)
Method in brief: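 HCC78 NSCLC cells (~1000/well) in RPMI-1640 with 10% FBS were treated 24 h after seeding and exposed to compound for 4 days at 37 °C. Viability was read by MTT, with absorbance at 538 nm after DMSO/glycine solubilization.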

Ros1 enzyme = target: T1, Ros1 enzyme (Homo sapiens, UniProt P08922); experiment: Ros1 enzymatic assay; format: biochemical; details: Ros1 enzymatic assay; read-out: ROS1 pIC50 (converted)
T1 construct: 0.5 μg/ml Ros1 enzyme
Method in brief: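 First, compounds meet Ros1 enzyme mix plus substrate mix containing IRS-Tide and 33P-labelled ATP at 20 μM. Next, incubation lasts 120 minutes at room temperature. Then EDTA stop buffer with streptavidin beads is added for 15 minutes, and bead-bound radioactivity is imaged.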

[3] = target: Ba/F3 cells containing Ros1 with G2032R mutation (Homo sapiens, UniProt P08922, G2032R, cells depend on it, form not given); experiment: Ba/F3-Ros1 cell proliferation assay, G2032R crizotinib-resistance mutant; format: cell-based, murine; details: without IL-3
Description: Ba/F3-Ros1 Cell Proliferation Assay
This assay was carried out with Ba/F3 cells containing three different versions of Ros1: the wild-type protein, protein with a mutation at the gatekeeper residue (L2026M), and protein with a mutation identified in a tumor from a patient that became resistant to crizotinib (Xalkori®) treatment (G2032R). Compounds were solubilized in 100% DMSO (dimethyl sulfoxide) and sprayed into polystyrene, tissue culture treated 384-well plates. A 50 μl volume of cell culture medium (phenol red free RPMI-1640, 10% FBS (fetal bovine serum), 2 mM L-Glutamine) containing 20000 Ba/F3-Ros1 cells was added to each well and the plates were placed in an incubator at 37° C. and 5% CO2. After 24 hours, 10 μl of Alamar Blue solution (0.5 mM K3Fe(CN)6, 0.5 mM K4Fe(CN)6, 0.15 mM Resazurin and 100 mM Phosphate Buffer) was added to the wells, incubated for 4 hours at 37° C. and 5% CO2 before RFU's (Relative Fluorescence Units) (ex. 540 nm., em. 590 nm.) were measured in a fluorescence plate reader.

[4] = target: T2, Ba/F3 cells containing Ros1 wild-type protein (Homo sapiens, UniProt P08922, cells depend on it, form not given); experiment: Ba/F3-Ros1 cell proliferation assay, wild-type Ros1; format: cell-based, murine; details: without IL-3
T2 construct: The background only speaks of 'a number of different unrelated proteins' and names SLC34A2-ROS1 for HCC78 cells
Method in brief: as §1

[5] = test system: Ros pY2274 in HCC78 cells; experiment: pROS1 immunofluorescence assay in HCC78 cells; format: cell-based; details: Homo sapiens, read-out: HCC78-pRos1 pIC50 (converted)
Method in brief: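 HCC78 NSCLC cells treated with compound for 4 h at 37 °C, then fixed and immunostained for ROS1 pY2274 (Alexa Fluor 680, read at 700 nm). Total ROS1 stained in parallel (IRDye800cw, 800 nm) and used to normalize phospho signal.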

[6] = test system: Ba/F3 cells containing Ros1 wild-type protein + IL-3; experiment: Ba/F3-Ros1 cell proliferation counter-screen, wild-type protein in the presence of 10 ng/ml murine IL-3; format: cell-based; details: Mus musculus, BaF3, 24 h, read-out: BaF3-ROS1 + IL3 pIC50 (converted)
Method in brief: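 Compounds were dispensed from DMSO into plates, and 20000 Ba/F3 cells carrying wild-type Ros1 were added in phenol red-free RPMI-1640 with 10% FBS plus 10 ng/ml murine IL-3. After 24 h at 37 °C, Alamar Blue was added for 4 h and fluorescence recorded.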

[7] = HCC78 cells, 4 hours, Ros pY2274 normalized to total Ros1
[8] = counter-screen, wild-type, 10 ng/ml murine IL-3

T1 sequence (P08922 28-2347): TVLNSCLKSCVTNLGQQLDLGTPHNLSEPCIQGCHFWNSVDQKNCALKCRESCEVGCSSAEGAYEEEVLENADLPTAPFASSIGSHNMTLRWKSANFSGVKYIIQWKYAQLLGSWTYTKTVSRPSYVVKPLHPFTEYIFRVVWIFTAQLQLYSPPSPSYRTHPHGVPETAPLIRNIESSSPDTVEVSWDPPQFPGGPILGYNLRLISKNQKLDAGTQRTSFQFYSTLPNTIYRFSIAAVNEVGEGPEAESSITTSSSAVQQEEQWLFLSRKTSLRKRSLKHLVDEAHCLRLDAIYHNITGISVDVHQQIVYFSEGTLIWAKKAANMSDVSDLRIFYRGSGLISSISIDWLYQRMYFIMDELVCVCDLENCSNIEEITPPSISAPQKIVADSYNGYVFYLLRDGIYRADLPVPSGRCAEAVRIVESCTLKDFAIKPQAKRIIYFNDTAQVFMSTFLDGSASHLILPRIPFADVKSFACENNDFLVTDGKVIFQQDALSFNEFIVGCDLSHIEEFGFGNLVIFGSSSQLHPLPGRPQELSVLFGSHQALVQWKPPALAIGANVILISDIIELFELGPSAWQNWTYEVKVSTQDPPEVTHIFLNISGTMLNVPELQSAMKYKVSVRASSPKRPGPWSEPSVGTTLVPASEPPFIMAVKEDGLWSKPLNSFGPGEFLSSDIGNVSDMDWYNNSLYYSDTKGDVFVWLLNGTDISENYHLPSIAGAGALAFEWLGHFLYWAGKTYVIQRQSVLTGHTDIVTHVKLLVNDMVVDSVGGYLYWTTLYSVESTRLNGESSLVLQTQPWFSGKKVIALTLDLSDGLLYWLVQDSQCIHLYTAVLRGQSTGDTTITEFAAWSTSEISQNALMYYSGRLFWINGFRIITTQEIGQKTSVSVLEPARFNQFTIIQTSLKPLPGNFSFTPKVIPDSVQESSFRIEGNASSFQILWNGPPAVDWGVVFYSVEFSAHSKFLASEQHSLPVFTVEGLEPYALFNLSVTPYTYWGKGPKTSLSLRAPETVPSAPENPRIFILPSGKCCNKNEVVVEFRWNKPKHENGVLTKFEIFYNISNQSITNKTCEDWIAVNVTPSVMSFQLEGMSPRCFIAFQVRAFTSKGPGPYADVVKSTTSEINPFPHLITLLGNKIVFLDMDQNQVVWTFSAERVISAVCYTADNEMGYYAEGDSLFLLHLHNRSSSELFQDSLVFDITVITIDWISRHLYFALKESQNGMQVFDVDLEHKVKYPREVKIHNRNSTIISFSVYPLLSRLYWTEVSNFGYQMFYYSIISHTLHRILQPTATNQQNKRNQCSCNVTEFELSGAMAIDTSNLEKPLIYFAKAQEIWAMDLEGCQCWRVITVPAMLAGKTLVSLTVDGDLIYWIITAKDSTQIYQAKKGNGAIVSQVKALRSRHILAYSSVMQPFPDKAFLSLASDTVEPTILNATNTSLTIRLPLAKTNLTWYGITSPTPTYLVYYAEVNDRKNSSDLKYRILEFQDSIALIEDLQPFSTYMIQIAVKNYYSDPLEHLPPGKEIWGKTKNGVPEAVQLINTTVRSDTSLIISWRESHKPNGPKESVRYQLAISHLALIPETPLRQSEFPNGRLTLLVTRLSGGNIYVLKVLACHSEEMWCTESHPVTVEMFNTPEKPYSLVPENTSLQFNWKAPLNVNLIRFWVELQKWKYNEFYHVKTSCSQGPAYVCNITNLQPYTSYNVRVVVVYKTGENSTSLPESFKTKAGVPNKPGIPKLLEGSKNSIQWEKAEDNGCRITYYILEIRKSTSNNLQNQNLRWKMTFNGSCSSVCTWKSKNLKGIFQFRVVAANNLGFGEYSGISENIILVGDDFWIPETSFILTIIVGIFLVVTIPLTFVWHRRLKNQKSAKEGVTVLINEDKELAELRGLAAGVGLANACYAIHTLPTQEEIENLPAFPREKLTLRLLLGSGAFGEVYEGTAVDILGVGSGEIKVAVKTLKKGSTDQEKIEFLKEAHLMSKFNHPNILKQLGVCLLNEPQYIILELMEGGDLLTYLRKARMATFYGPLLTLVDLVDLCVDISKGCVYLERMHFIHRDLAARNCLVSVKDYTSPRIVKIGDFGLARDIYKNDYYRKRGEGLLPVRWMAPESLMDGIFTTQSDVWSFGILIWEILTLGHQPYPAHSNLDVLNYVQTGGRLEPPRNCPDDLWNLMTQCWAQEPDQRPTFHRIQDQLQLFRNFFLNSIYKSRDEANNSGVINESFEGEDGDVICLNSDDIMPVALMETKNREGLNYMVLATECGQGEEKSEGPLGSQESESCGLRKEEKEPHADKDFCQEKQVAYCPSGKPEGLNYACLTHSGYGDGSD
Chain of Ba/F3 cells containing Ros1 with a mutation at the gatekeeper residue (L2026M) (P08922 whole entry L2026M, form open): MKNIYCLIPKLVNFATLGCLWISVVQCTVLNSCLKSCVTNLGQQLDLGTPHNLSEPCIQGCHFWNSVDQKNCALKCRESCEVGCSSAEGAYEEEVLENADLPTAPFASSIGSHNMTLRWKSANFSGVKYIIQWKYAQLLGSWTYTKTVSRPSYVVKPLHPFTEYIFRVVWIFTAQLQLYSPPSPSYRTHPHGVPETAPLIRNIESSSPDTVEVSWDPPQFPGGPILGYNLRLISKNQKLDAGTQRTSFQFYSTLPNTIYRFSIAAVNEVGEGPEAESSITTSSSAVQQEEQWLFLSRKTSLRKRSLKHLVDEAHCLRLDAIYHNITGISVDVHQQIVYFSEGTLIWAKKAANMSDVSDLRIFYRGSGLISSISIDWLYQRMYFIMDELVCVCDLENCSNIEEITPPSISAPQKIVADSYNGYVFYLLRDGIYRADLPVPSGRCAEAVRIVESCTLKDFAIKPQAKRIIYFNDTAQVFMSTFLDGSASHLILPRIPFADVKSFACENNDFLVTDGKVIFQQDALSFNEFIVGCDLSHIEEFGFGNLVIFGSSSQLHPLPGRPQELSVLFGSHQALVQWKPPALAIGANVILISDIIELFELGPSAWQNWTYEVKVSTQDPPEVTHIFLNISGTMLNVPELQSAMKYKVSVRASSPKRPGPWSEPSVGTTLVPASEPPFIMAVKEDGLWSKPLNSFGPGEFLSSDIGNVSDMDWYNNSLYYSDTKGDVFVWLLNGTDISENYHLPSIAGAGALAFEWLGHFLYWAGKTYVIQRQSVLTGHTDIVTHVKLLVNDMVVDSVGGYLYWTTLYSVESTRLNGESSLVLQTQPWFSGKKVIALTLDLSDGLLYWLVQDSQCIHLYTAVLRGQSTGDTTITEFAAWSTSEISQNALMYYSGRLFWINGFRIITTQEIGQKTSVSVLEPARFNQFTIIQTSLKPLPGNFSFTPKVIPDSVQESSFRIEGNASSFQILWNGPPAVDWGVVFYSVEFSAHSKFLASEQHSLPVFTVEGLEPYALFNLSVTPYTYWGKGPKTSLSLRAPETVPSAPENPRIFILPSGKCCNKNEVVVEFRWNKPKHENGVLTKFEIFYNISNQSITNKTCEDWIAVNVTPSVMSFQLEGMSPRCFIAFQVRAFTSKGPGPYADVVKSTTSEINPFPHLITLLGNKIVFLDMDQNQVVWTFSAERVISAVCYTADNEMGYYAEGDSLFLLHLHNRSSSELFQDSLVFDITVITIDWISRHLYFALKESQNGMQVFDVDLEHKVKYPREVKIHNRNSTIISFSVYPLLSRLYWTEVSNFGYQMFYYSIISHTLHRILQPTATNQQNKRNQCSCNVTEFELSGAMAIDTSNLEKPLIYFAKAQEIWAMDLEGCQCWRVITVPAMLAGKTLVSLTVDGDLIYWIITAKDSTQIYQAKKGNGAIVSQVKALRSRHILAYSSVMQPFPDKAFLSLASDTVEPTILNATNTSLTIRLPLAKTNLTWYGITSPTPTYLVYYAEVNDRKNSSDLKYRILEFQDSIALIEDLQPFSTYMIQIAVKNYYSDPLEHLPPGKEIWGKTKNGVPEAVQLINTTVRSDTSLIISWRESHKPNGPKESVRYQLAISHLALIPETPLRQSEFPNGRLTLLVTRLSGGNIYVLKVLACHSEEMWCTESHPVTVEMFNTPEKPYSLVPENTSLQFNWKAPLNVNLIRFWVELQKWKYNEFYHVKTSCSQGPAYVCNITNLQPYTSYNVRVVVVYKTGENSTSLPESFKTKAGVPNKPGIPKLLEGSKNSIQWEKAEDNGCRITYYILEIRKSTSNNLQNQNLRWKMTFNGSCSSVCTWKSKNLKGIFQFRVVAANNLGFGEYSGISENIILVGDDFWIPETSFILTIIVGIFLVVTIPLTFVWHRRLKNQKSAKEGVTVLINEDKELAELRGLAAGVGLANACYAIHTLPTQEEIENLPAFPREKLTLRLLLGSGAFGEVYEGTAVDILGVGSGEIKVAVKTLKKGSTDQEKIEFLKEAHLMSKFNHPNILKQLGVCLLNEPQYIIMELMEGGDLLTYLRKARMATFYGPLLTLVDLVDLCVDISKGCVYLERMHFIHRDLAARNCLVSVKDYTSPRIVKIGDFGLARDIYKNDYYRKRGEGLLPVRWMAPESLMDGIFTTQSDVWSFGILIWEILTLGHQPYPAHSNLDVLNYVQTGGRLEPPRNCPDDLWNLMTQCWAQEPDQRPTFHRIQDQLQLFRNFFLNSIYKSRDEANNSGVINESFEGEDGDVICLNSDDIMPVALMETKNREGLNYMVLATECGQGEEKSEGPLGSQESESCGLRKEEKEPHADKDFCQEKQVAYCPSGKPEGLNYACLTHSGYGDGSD
Chain of Ba/F3 cells containing Ros1 with G2032R mutation (P08922 whole entry G2032R, form open): as the sequence (P08922 whole entry L2026M, form open) above, with M2026L, G2032R counted along it
T2 sequence (P08922 whole entry, stated change not applied): as the sequence (P08922 whole entry L2026M, form open) above, with M2026L counted along it

Q: Which results are given for CC(C)c1ccc(COc2ccc(-c3c(-c4ccnc(N)c4)nn4c3C(=O)NCC4)cc2)cc1 [Compound 7]?
A: Ba/F3 Ros1 L2026M (-IL-3) pIC50 [1]: 7.4; EC50 [2]: 251 nM; IC50 (Ros1 enzyme): 39.8 nM; melting point: 267 °C; Ba/3 Ros1 G2032R (-IL-3) pIC50 [3]: 6.8; BaF3-ROS1-IL3 pIC50 [4]: 7.4; IC50 ([5]; HCC78, 4 h): 100 nM; CC50 [6]: > 10000 nM

Q: Which “Ba/F3 Ros1 L2026M (-IL-3) pIC50” value [1] does the source give for COc1cc(-c2c(-c3ccncc3)nn3c2C(=O)NCC3)ccc1OCc1ccc(C(C)C)cc1 [Compound 32] here?
A: 8.0

Q: And the EC50 [2]?
A: 50.1 nM

Q: And the IC50 (Ros1 enzyme)?
A: 6.31 nM

Q: And the melting point?
A: 187 °C

Q: What about the “Ba/3 Ros1 G2032R (-IL-3) pIC50” value [3] of the same compound?
A: 7.3

Q: What about the “BaF3-ROS1-IL3 pIC50” value [4] of the same compound?
A: 8.0

Q: What about the IC50 ([5]; HCC78, 4 h) of the same compound?
A: 15.8 nM

Q: And the CC50 [6]?
A: > 10000 nM

Q: With CC(C)c1ccc(COc2ccc(-c3c(-c4ccncc4)nn4c3C(=O)N(CC3(C)COC3)CC4)cc2)cc1 [Compound 54] as the compound, how does the “Ba/F3 Ros1 L2026M (-IL-3) pIC50” value [1] read?
A: 7.2

Q: And the EC50 [2]?
A: 79.4 nM

Q: And the IC50 (Ros1 enzyme)?
A: 79.4 nM

Q: And the melting point?
A: 204 °C

Q: And the “Ba/3 Ros1 G2032R (-IL-3) pIC50” value [3]?
A: 6.6

Q: And the “BaF3-ROS1-IL3 pIC50” value [4]?
A: 7.3

Q: What about the IC50 ([5]; HCC78, 4 h) of the same compound?
A: 20 nM

Q: And the CC50 [6]?
A: > 10000 nM

Q: What does the source list for CC(C)c1ccc(COc2ccc(-c3c(-c4ccncc4)nn4c3C(=O)NCC4)cn2)cc1 [Compound 71]?
A: Ba/F3 Ros1 L2026M (-IL-3) pIC50 [1]: 7.6; EC50 [2]: 100 nM; IC50 (Ros1 enzyme): 25.1 nM; melting point: 199 °C; Ba/3 Ros1 G2032R (-IL-3) pIC50 [3]: 7.0; BaF3-ROS1-IL3 pIC50 [4]: 7.7; IC50 ([5]; HCC78, 4 h): 39.8 nM; CC50 [6]: > 10000 nM

Q: Which “Ba/F3 Ros1 L2026M (-IL-3) pIC50” value [1] does the source give for CC(C)(C#N)c1ccc(COc2ccc(-c3c(-c4ccncc4)nn4c3C(=O)NCC4)cc2)cc1 [Compound 10] here?
A: 6.9

Q: And the EC50 [2]?
A: 158 nM

Q: What about the IC50 (Ros1 enzyme) of the same compound?
A: 79.4 nM

Q: And the melting point?
A: 280 °C

Q: What about the “Ba/3 Ros1 G2032R (-IL-3) pIC50” value [3] of the same compound?
A: 6.6

Q: And the “BaF3-ROS1-IL3 pIC50” value [4]?
A: 7.1

Q: And the IC50 ([5]; HCC78, 4 h)?
A: 25.1 nM

Q: And the CC50 [6]?
A: > 10000 nM

Q: For CN1CCn2nc(-c3ccncc3)c(-c3ccc(OCc4ccc(C5CC5)nc4)cc3)c2C1=O [Compound 138], which “Ba/F3 Ros1 L2026M (-IL-3) pIC50” value [1] is on record?
A: 6.8

Q: And the EC50 ([2]; HCC78 cells, 4 days, MTT)?
A: 501 nM

Q: What about the IC50 (Ros1 enzyme) of the same compound?
A: 100 nM

Q: What about the melting point of the same compound?
A: 175 °C

Q: And the “Ba/3 Ros1 G2032R (-IL-3) pIC50” value [3]?
A: 6.0

Q: And the “BaF3-ROS1-IL3 pIC50” value [4]?
A: 6.9

Q: And the IC50 [5, 7]?
A: 316 nM

Q: And the CC50 [6, 8]?
A: > 10000 nM

Q: Which EC50 ([2]; HCC78 cells, 4 days, MTT) does the source give for c1cc(-c2nn3c(c2-c2ccc(OCc4ccc(C5CC5)cc4)cc2)CNC2(CC2)C3)ccn1 [Compound 171] here?
A: 1580 nM

Q: What about the IC50 (Ros1 enzyme) of the same compound?
A: 398 nM

Q: And the melting point?
A: 152 °C

Q: What about the “Ba/3 Ros1 G2032R (-IL-3) pIC50” value [3] of the same compound?
A: 6.0

Q: What about the “BaF3-ROS1-IL3 pIC50” value [4] of the same compound?
A: 6.2

Q: What about the IC50 [5, 7] of the same compound?
A: 501 nM

Q: And the CC50 [6, 8]?
A: > 10000 nM

Q: Which “Ba/F3 Ros1 L2026M (-IL-3) pIC50” value [1] does the source give for O=C1NCCn2nc(-c3ccncc3)c(-c3ccc(OCc4ccc(OC(F)(F)F)cc4)cc3)c21 [Compound 116] here?
A: 7.3

Q: And the EC50 [2]?
A: 251 nM

Q: And the IC50 (Ros1 enzyme)?
A: 126 nM

Q: What about the melting point of the same compound?
A: 260 °C

Q: What about the “Ba/3 Ros1 G2032R (-IL-3) pIC50” value [3] of the same compound?
A: 6.6

Q: What about the “BaF3-ROS1-IL3 pIC50” value [4] of the same compound?
A: 7.3

Q: And the IC50 ([5]; HCC78, 4 h)?
A: 158 nM

Q: What about the CC50 [6] of the same compound?
A: > 10000 nM

Q: Which “Ba/F3 Ros1 L2026M (-IL-3) pIC50” value [1] does the source give for CNC(=O)CN1CCn2nc(-c3ccncc3)c(-c3ccc(OCc4ccc(C(C)C)cc4)cc3)c2C1 [Compound 174] here?
A: 6.8

Q: What about the EC50 ([2]; HCC78 cells, 4 days, MTT) of the same compound?
A: 794 nM

Q: And the IC50 (Ros1 enzyme)?
A: 200 nM

Q: And the melting point?
A: 185 °C

Q: And the “Ba/3 Ros1 G2032R (-IL-3) pIC50” value [3]?
A: 6.4

Q: What about the “BaF3-ROS1-IL3 pIC50” value [4] of the same compound?
A: 6.8

Q: What about the IC50 [5, 7] of the same compound?
A: 251 nM

Q: What about the CC50 [6, 8] of the same compound?
A: > 10000 nM

Q: Which results are given for CC(C)c1ccc(COc2ccc(-c3c(-c4ccncc4)nn4c3C(=O)N(C(C)C)CC4)cc2)cc1 [Compound 49]?
A: Ba/F3 Ros1 L2026M (-IL-3) pIC50 [1]: 7.2; EC50 [2]: 100 nM; IC50 (Ros1 enzyme): 39.8 nM; melting point: 168 °C; Ba/3 Ros1 G2032R (-IL-3) pIC50 [3]: 6.9; BaF3-ROS1-IL3 pIC50 [4]: 7.3; IC50 ([5]; HCC78, 4 h): 31.6 nM; CC50 [6]: > 10000 nM

Q: Which “Ba/F3 Ros1 L2026M (-IL-3) pIC50” value [1] does the source give for CC(C)c1ccc(COc2ccc(-c3c(-c4ccncc4)nn4c3C(=O)NCC4)c(F)c2)cc1 [Compound 6] here?
A: 7.7

Q: And the EC50 [2]?
A: 63.1 nM

Q: And the IC50 (Ros1 enzyme)?
A: 10 nM

Q: And the melting point?
A: 271 °C

Q: And the “Ba/3 Ros1 G2032R (-IL-3) pIC50” value [3]?
A: 7.4

Q: And the “BaF3-ROS1-IL3 pIC50” value [4]?
A: 7.9

Q: And the IC50 ([5]; HCC78, 4 h)?
A: 15.8 nM

Q: And the CC50 [6]?
A: > 10000 nM

Q: With O=C1NCCn2nc(-c3ccncc3)c(-c3ccc(OCc4ccc(C5CC5)cc4)cc3)c21 [Compound 4] as the compound, how does the “Ba/F3 Ros1 L2026M (-IL-3) pIC50” value [1] read?
A: 7.4

Q: What about the EC50 [2] of the same compound?
A: 200 nM

Q: What about the IC50 (Ros1 enzyme) of the same compound?
A: 39.8 nM

Q: What about the melting point of the same compound?
A: 262 °C

Q: What about the “Ba/3 Ros1 G2032R (-IL-3) pIC50” value [3] of the same compound?
A: 6.8

Q: And the “BaF3-ROS1-IL3 pIC50” value [4]?
A: 7.6

Q: What about the IC50 ([5]; HCC78, 4 h) of the same compound?
A: 79.4 nM

Q: And the CC50 [6]?
A: > 10000 nM
